Literature values as cited in patent publication US10537540B2, “Pharmaceutical composition for promoting nerve injury restoration and application thereof” (priority 2012, dated 2020).

Experiments:
[1] = tested on: rat spinal cord injury model
[2] = intravenous infusion of 5 g

## Cc1c(C)c2c(c(C)c1OP(=O)([O-])OC1=C(O)[C@@H]([C@@H](O)CO)OC1=O)CC[C@@](C)(CCC[C@H](C)CCC[C@H](C)CCCC(C)C)O2.[K+] [EPC-K1]
[1]
  Lipid peroxidation and free radicals after spinal cord injury: significantly block lipid peroxidation and remove free radicals

## Cc1ncc(CO)c(CO)c1O.Cl [vitamin B6]
[2]
  Urine induced: about 380 mL
